In patent EP0427799B1, “METHOD AND COMPOUNDS FOR AICA RIBOSIDE DELIVERY AND FOR LOWERING BLOOD GLUCOSE” (GENSIA, INC., priority 1989, dated 1990):

Legend:
ischemic heart tissue = assay: Adenosine, AICA riboside and ZMP levels in ischemic heart tissue; type: in vivo, rats; conditions: ischemic rat heart tissue
Experimental: Prodrug compounds of the present invention and AICA riboside were tested for their activity in enhancing the production of adenosine and increasing production of AICA riboside from ZMP in ischemic heart tissue in rats.
Samples of heart tissue after ischemia were analyzed for nucleoside and nucleotide levels. Samples were measured for adenosine, AICA riboside and ZMP concentrations by HPLC.

in vivo = assay: in vivo; design: species or system dogs; conditions: dog
Experimental: The bioavailability of AICA riboside after oral administration of either AICA riboside or one of the AICA riboside prodrugs of the present invention was evaluated in dogs. Plasma concentrations of AICA riboside and intact prodrug were measured using HPLC. (See Dixon, R., et al., Res. Commun. Chem. Path. Pharm. 65:405-408 (1989)). Bioavailability of AICA riboside was evaluated in terms of the time required to reach maximum plasma concentration (Tmax), the maximum concentration achieved (Cmax) and the area under the plasma concentration-time curve (AUC) from time zero to the last measurable plasma concentration. Absolute bioavailability (F%) was calculated by dividing the AUC for AICA riboside following oral administration of the prodrug (or AICA riboside itself) by the AUC following intravenous administration of an equivalent amount of AICA riboside (100% bioavailability).

plasma glucose [1] = assay: Plasma glucose levels in non-fasted rats; type: in vivo, rats (Sprague Dawley); conditions: 750 mg/Kg, 1 hour after administration
Experimental: (§1) This hypoglycemic effect may contribute to the anti-ischemic properties of the molecule. Ribose is known to lower blood glucose in several animal species, including man, in relatively high doses (on the order of about 1000 mg/kg) by an unknown mechanism, possibly by inhibition of phosphoglucomutase. Accordingly, in theory, AICA riboside could cause hypoglycemia at extremely high doses ([…]) due to its ability to deliver ribose phosphate to cells. Other means of increasing intracellular ribose such as treatment with ribose itself or other nucleosides and prodrugs and analogs of them which can be metabolized to yield ribose-1-phosphate (which is converted ribose-5-phosphate) or ribose-5-phosphate may also lower blood sugar. […] At higher doses of AICA riboside, hypoglycemic seizures and death were induced in rabbits and mice. We have found rats to also be sensitive to the hypoglycemic effects of AICA riboside. Initial studies were performed using non-fasted rats (Sprague Dawley) and mice (Swiss-Webster). […] In non-fasted mice the decrease of glucose levels at this dose was greater, On the order of 30-50%. In both cases the hypoglycemia was statistically significant at the p <.01 level. […] In fasted mice, AICA riboside is potent in lowering blood glucose. (See e.g., Figure 6). In fasted mice AICA riboside may cause seizures at doses of 500 mg/Kg and above. […]

plasma glucose [2] = assay: Plasma glucose levels in non-fasted and fasted mice; type: in vivo, mice (Swiss-Webster); conditions: for reduced glucose levels: fasted mice (16 hours)
Experimental: Ribose is known to lower blood glucose in several animal species, including man, in relatively high doses (on the order of about 1000 mg/kg) by an unknown mechanism, possibly by inhibition of phosphoglucomutase. […] Initial studies were performed using non-fasted rats (Sprague Dawley) and mice (Swiss-Webster).
Male mice (Swiss-Webster) were injected IP with the indicated treatment. […] Ribose and AICA riboside were formulated in saline. Glucose levels were measured on plasma (heparinized blood centrifuged at 10,000 X g for ten minutes). Glucose levels were measured one hour after AICA riboside administration.

serum glucose = assay: Plasma glucose levels in humans after intravenous infusion; type: in vivo
Experimental: Healthy male volunteers were given a 30-minute intravenous infusion of AICA riboside at doses of 25 mg/kg, 50 mg/kg or 100 mg/kg.
Plasma glucose levels were monitored over a four hour period during and following the 30 minute infusion. Plasma glucose was measured by clinical chemistry autoanalyzer. The onset of the serum glucose lowering effect was evident by the end of the AICA riboside infusion period and plasma glucose reached a nadir approximately 30 minutes after the AICA riboside infusion was stopped. Recovery to euglycemic levels was complete by about three hours.

plasma glucose [3] = assay: Plasma glucose in streptozocin-hyperglycemic rats; type: in vivo; conditions: rats made hyperglycemic with 50 mg/Kg streptozocin I.V.; doses as low as 100 mg/Kg I.P.
Experimental: as §1

adenosine kinase = adenosine kinase (Homo sapiens, UniProt P55263); assay: Inhibition of adenosine kinase; type: biochemical
adenosine kinase, sequence (P55263 whole entry, species assumed, the tested form may be a part): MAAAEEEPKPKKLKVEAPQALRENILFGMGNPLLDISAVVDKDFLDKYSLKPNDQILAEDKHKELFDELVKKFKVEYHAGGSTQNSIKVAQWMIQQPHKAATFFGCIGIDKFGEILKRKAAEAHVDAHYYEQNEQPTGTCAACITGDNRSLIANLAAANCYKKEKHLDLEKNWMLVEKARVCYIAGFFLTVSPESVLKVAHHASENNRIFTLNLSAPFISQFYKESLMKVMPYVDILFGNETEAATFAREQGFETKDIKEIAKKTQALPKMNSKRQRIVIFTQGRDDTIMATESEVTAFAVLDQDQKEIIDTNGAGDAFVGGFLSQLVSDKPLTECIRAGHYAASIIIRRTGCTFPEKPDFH

infarct size = assay: Rat models of focal brain ischemia (partial and total reperfusion); type: in vivo; conditions: 800 mg/kg IP
Text: The claimed prodrugs, by delivering AICA riboside should provide similar efficacy. […] Both intracerebroventricular (ICV) and IP administration of AICA riboside was effective in the gerbil model In addition to the gerbil, two different rat models of focal ischemia were also used to evaluate AICA-riboside. One model employed partial reperfusion and the second total reperfusion.

triglycerides = assay: Plasma triglyceride levels in diabetic rats, chronic treatment; type: in vivo; conditions: streptozotocin-induced diabetes in rats
Experimental: Rats were made diabetic by treatment with streptozocin (50 mg/kg IV) and then treated with either saline or AICA riboside (500 mg/kg, twice a day) for 22 days. Plasma triglyceride levels were analyzed 18 hours after the last injection of AICA riboside using the Sigma Procedure #334 Assay Kit (coupled assay employing lipase, glycerokinase, pyruvate kinase and lactate dehydrogenase) which measures decreases in OD₃₄₀ over time (NADH disappearance).

insulin = assay: Plasma insulin levels in humans; type: in vivo; conditions: human subjects; precedes the drop in blood glucose
Experimental: Human (male) volunteers were given a 15-minute intravenous infusion of 50 mg/kg AICA riboside. Plasma concentrations of immunoreactive insulin was determined by RIA during and following the administration for about 4 hours. (RIA kit, Amersham Clinical).

[4] = healthy male volunteers, 30-minute intravenous infusion

Question: For NC(=O)c1ncn([C@@H]2O[C@H](CO)[C@@H](O)[C@H]2O)c1N [AICA riboside, 1-β-D-ribofuranosyl-5-aminoimidazole-4-carboxamide], which “Tissue Concentration Adenosine” value (ischemic heart tissue; Prodrug A at dose equimolar to AICA riboside) is on record?
Answer: Its value is 409 ± 60 nmol/g.

Question: And the “Tissue Concentration AICA Riboside” value (ischemic heart tissue; equimolar doses)?
Answer: The value was 774 ± 73 nmol/g.

Question: And the AUC(0-t) (in vivo; iv)?
Answer: The AUC(0-t) was 8300 ng·h/mL.

Question: What about the F (in vivo; iv) of the same compound?
Answer: Its F is 100%.

Question: What about the AUC(0-t) (in vivo; po) of the same compound?
Answer: The AUC(0-t) was 900 ng·h/mL.

Question: What about the Cmax (in vivo; po) of the same compound?
Answer: Its Cmax is 1100 ng/mL.

Question: What about the Tmax (in vivo; po) of the same compound?
Answer: The Tmax was 45 min.

Question: And the bioavailability (in vivo; po)?
Answer: The bioavailability was 11%.

Question: What about the “Decreases in plasma glucose levels” value (plasma glucose [1]) of the same compound?
Answer: The value was 30-40%.

Question: And the “doses that may cause seizures” value (plasma glucose [2]; fasted mice)?
Answer: Its value is at least 500 mg/kg.

Question: What about the “duration of reduced plasma glucose levels” value (plasma glucose [2]; fasted mice (2 hours), 500 mg/Kg) of the same compound?
Answer: Its value is 2 to 3 h.

Question: What about the reduced glucose levels (plasma glucose [2]; 250 mg/Kg) of the same compound?
Answer: The reduced glucose levels was 50%.

Question: What about the reduced glucose levels (plasma glucose [2]; 500 and 750 mg/Kg) of the same compound?
Answer: Its reduced glucose levels is 60%.

Question: And the “decrease of glucose levels” value (plasma glucose [2]; non-fasted mice, 750 mg/Kg)?
Answer: The value was 30-50%.

Question: And the “time of plasma glucose nadir after infusion was stopped” value (serum glucose; [4])?
Answer: Its value is “approximately 30 minutes”.

Question: What about the “time to recovery to euglycemic levels” value (serum glucose; [4]) of the same compound?
Answer: Its value is “about three”.

Question: And the “effect on serum glucose” value (serum glucose; humans, 25 mg/kg intravenously over 30 minutes)?
Answer: The value was “significant reductions in serum glucose”.

Question: What about the “effect on plasma glucose” value (plasma glucose [3]) of the same compound?
Answer: Its value is “marked decreases in plasma glucose that approached euglycemic levels”.

Question: And the “inhibition of adenosine kinase” value (adenosine kinase)?
Answer: The value was “weak inhibitor”.

Question: What about the infarct size (infarct size) of the same compound?
Answer: The infarct size was “highly significant reduction in infarct size”.

Question: What about the serum triglycerides (triglycerides) of the same compound?
Answer: The serum triglycerides was “lowers serum triglycerides”.

Question: And the serum insulin levels (insulin)?
Answer: The serum insulin levels was “significant elevations of serum insulin levels”.
